# From patent US5369104A, “Pyridazine compounds, their production and use” (Takeda Chemical Industries, Ltd., priority 1991, dated 1994)
# Tested on: PAF-induced bronchoconstriction
# Assay: Action against PAF-induced bronchoconstriction in guinea pigs (Konzett-R6essler method)
# Format: in vivo, guinea pig (male Hartley)
# Conditions: guinea pig; 10 mg/Kg orally, 1 hour before PAF (1 μg/Kg, i.v.); recorded for 15 minutes
# Method: (Action against PAF-induced bronchoconstriction in guinea pigs)
# Male Hartley guinea pigs (body weight 500 g) were used. The bronchoconstriction reaction in the guinea pig which has intravenously received PAF (1 μg/kg) was measured by the Konzett-R6essler method. The trachea of the guinea pig with its back fixed was incised under anesthesia condition with urethane (intraperitoneal injection, 1.50 g/Kg) and connected with an artificial respirator via a cannula. The branch of the tracheal cannula was connected with a transducer (7020 type, Ugobasile). Air was sent to the trachea at the volume of 3-7 ml/stroke, at the stroke of 70 strokes/min. at load pressure of 10cm H2 O to lung and overflowed air volume was recorded with Rectegraph (Recte-Hori-8s, Sanei Sokuki) via the transducer. After the guinea pig was treated with galamine (1 mg/Kg, i.v.), PAF (1 μg/Kg) dissolved in a physiological saline solution was administered to the guinea pig via a jugular venous cannula and the bronchoconstriction reaction induced thereby was recorded for 15 minutes. The drug (10 mg/Kg) suspended in a 5% gum arabic solution was administered orally 1 hour before the injection of PAF.
# Action against PAF-induced bronchoconstriction of guinea pigs
structure (smiles),measurement,value
"Cc1cc2nccn2nc1CCC(C)(C)CCS(N)(=O)=O [Example 4, 6-(3,3-dimethyl-5-sulfamoyl-1-pentyl)-7-methylimidazo[1,2-b]pyridazine]",Inhibition (%) of PAF-induced bronchoconstriction,86%
